Data published in patent publication US20250268923A1, “APPLICATION OF TETRACYCLINE COMPOUND IN TREATMENT OF TUMOR” (NANJING SHIJIANG MEDICINE TECHNOLOGY CO., LTD, priority 2021, published 2025).

Legend:
Format in all cases: cell-based
[1] = test system: G-401 (human renal carcinoma Wilms cell); assay: Cell viability (CellTiter-Glo), G-401; conditions: sensitive group, 3-4 days of culture, n=3, read-out: Tigecycline IC50
Description: (§1) The inhibitory effect of tigecycline on various tumor cell lines was detected using cell activity detection reagent.
(§2) Cell viability was detected using the Promega CellTiter-Glo kit, cell viability was determined by directly measuring intracellular ATP content. In the experiment, the IC50 value of tigecycline on various tumor cell lines was determined.
(§3) Each tumor cell was cultured separately in relevant medium (+p/s), and was incubated for 3 h, then the gradient diluted tigecycline was added. After 3-4 days of culture, the relevant IC50 (50% inhibiting concentration) was measured (n=3). The name, source and culture conditions of each tumor cell line were as follows:
Cell line G-401 (ATCC, No. CRL-1441) was cultured in 10% fetal bovine serum-containing McCoy's 5a medium (+P/S).

[2] = test system: NCI-H82 (ov-NNMT) cell (NNMT protein-overexpressing); assay: Cell viability (CellTiter-Glo), NNMT-overexpressing NCI-H82; conditions: Homo sapiens, NNMT gene inserted by viral vector, n=3, read-out: IC50 value of tigecycline on NNMT protein-overexpressing NCI-H82 cell (NCI-H82 (ov-NNMT))
Excerpt: (§4) The NNMT protein-overexpressing NCI-H82 cell (NCI-H82 (ov-NNMT)) was obtained by inserting the NNMT gene into NCI-H82 cell using a viral vector. The control NCI-H82 cell (NCI-H82 (Con)) was obtained by transfecting NCI-H82 cell with empty virus vector without carrying NNMT gene.
(§5) The expressing level of NNMT protein in control NCI-H82 cell (NCI-H82 (Con)) and NNMT protein-overexpressing NCI-H82 cell (NCI-H82 (ov-NNMT)) was detected using Western Blot assay (as shown in FIG. 7), it could be seen from FIG. 7 that the NNMT protein in NCI-H82 (ov-NNMT) cell was overexpressed compared with the expression level of NNMT protein in NCI-H82 (Con) cell.
(§6) The IC50 value of tigecycline on control NCI-H82 cell (NCI-H82 (Con)) and NNMT protein-overexpressing NCI-H82 cell (NCI-H82 (ov-NNMT)) was determined using Promega CellTiter-Glo kit which detected cell viability by directly measuring intracellular ATP content (n=3), the experiment result was shown in Table 4 below: […]

[3] = test system: MDA-MB-453 (breast cancer cell); assay: Cell viability (CellTiter-Glo), MDA-MB-453; conditions: Homo sapiens, sensitive group, 3-4 days of culture, n=3, read-out: Tigecycline IC50
Description: as §1, §2, §3
Cell line MDA-MB-453 (ATCC, No. HTB-131) was cultured in 10% fetal bovine serum-containing Leibovitz's L-15 medium (+P/S).

[4] = test system: NCI-H82 (Con) cell (transfected with empty virus vector); assay: Cell viability (CellTiter-Glo), control NCI-H82 (Con); conditions: Homo sapiens, n=3, read-out: IC50 value of tigecycline on control NCI-H82 cell (NCI-H82 (Con))
Excerpt: as §4, §5, §6

[5] = test system: 786-O (clear cell renal cell adenocarcinoma cell); assay: Cell viability (CellTiter-Glo), 786-O; conditions: Homo sapiens, 786-0, insensitive group, 3-4 days of culture, n=3, read-out: Tigecycline IC50
Description: as §1, §2, §3
Cell line 786-0 (ATCC, No. CRL-1932) was cultured in 10% fetal bovine serum-containing RPMI1640 medium (+P/S).

[6] = test system: SW48 (human colon adenocarcinoma cell); assay: Cell viability (CellTiter-Glo), SW48; conditions: sensitive group, 3-4 days of culture, n=3, read-out: Tigecycline IC50
Description: as §1, §2, §3
Cell line SW48 (ATCC, No. CCL-231) was cultured in 10% fetal bovine serum-containing Leibovitz's L-15 medium (+P/S).

[7] = test system: SF-126 (human glioblastoma multiforme cell); assay: Cell viability (CellTiter-Glo), SF-126; conditions: insensitive group, 3-4 days of culture, n=3, read-out: Tigecycline IC50
Description: as §1, §2, §3
Cell line SF126 (JCRB. No. IFO50286) was cultured in 10% fetal bovine serum-containing EMEM medium (+P/S).

[8] = test system: GB-1 (human glioblastoma cell); assay: Cell viability (CellTiter-Glo), GB-1; conditions: insensitive group, 3-4 days of culture, n=3, read-out: Tigecycline IC50
Description: as §1, §2, §3
Cell line GB-1 (JCRB, No. IFO050489) was cultured in 10% fetal bovine serum-containing DMEM medium (+P/S).

[9] = test system: CFPAC-1 (human pancreatic cancer cell); assay: Cell viability (CellTiter-Glo), CFPAC-1; conditions: insensitive group, 3-4 days of culture, n=3, read-out: Tigecycline IC50
Description: as §1, §2, §3
Cell line CFPAC-1 (ATCC, No. CRL-1918) was cultured in 10% fetal bovine serum-containing IMDM medium (+P/S).

[10] = test system: WSU-DLCL2 (human diffuse large B-cell lymphoma); assay: Cell viability (CellTiter-Glo), WSU-DLCL2; conditions: WSUDLCL2, sensitive group, 3-4 days of culture, n=3, read-out: Tigecycline IC50
Description: as §1, §2, §3
Cell line WSU-DLCL2 (DSMZ, No. ACC-575) was cultured in 10% fetal bovine serum-containing RPMI1640 medium (+P/S).

[11] = test system: NCI-H82 (human small cell lung cancer cell); assay: Cell viability (CellTiter-Glo), NCI-H82; conditions: sensitive group, 3-4 days of culture, n=3, read-out: Tigecycline IC50
Description: as §1, §2, §3
Cell line NCI-H82 (ATCC, No. HTB-175) was cultured in 10% fetal bovine serum-containing RPMI1640 medium (+P/S).

Q: Which IC50 [1] does the source give for `CN(C)c1cc(NC(=O)CNC(C)(C)C)c(O)c2c1C[C@H]1C[C@H]3[C@H](N(C)C)C(O)=C(C(N)=O)C(=O)[C@@]3(O)C(O)=C1C2=O` [Tigecycline, tigecycline] here?
A: 4.04 µM

Q: What about the IC50 [2] of the same molecule?
A: 2.31 µM

Q: What about the IC50 [3] of the same molecule?
A: 5.05 µM

Q: And the IC50 [4]?
A: 0.75 µM

Q: What about the IC50 [5] of the same molecule?
A: 26.9 µM

Q: What about the IC50 [6] of the same molecule?
A: 6.31 µM

Q: What about the IC50 [7] of the same molecule?
A: 26.3 µM

Q: And the IC50 [8]?
A: 18.5 µM

Q: What about the IC50 [9] of the same molecule?
A: 24.8 µM

Q: What about the IC50 [10] of the same molecule?
A: 1.36 µM

Q: What about the IC50 [11] of the same molecule?
A: 0.79 µM
